Values joined by “and” are separate entries in the source; they are usually repeats but may differ in a detail not shown here. Equal entries are not always repeated.
Legend:
[1] = In vitro SPF measurement in a chemical solvent (Diffey and Robson); conditions: ethyl acetate, 10 μg/ml, transmittance 290-400 nm
Method: The in vitro methods of determining the protective effectiveness of sun products consist of measuring by transmission spectrophotometry the absorption spectrum of the filter in solution or of the product applied on a substrate with the aim of simulating the surface of the skin. The effectiveness against UVB and/or UVA rays, or the effect on the cutaneous response, are then determined by calculation, taking into account or not the UV radiation action spectrum for the damage considered.
The Sayre/Agin and Diffey/Robson method, used since the 1990s, involves a comparative measurement, with the aid of an integrating-sphere spectroradiometer, of the transition from 290 nm to 400 nm in 5 nm steps, the sample being subjected to UV radiation from a stable known source covering the whole of the UV spectrum (unfiltered xenon).
Diffey and Robson evaluate the erythemal response by the following calculation:
[formula] E(λ)=spectral irradiation in W(m-^2) (nm^−1) at 40° N sun at 20° zenith angle • ε=erythematous capacity
[formula] N(λ)=number of values for a given wavelength
The Diffey and Robson formula makes it possible to determine SPF from the measurement of transmittance between 290 nm and 400 nm. Transmittance is measured in solution in ethyl acetate at a concentration of 10 μg/ml using a UV-visible spectrophotometer (Varian CARY 50 Scan).
[formula] T(λ)=transmittance at wavelength λ

[2] = Photostability in solution in a chemical solvent (Suntest CPS+); format: physicochemical; conditions: 25 μg deposited from methanol, absorbance vs non-irradiated control, in % (unit assumed); for Photostability at 5 MED, mean: Suntest irradiation 5 MED; for Photostability at 10 MED, mean: Suntest irradiation 10 MED
Excerpt: A Suntest CPS+(Atlas, Linsengenicht/Altenhasslan, Germany) was used. The Suntest makes it possible to reproduce the solar spectrum and thus to carry out exposures inside at any time without weather constraints.
The radiance of the solar simulator was carefully measured with a spectroradiometer (MSS 2044, Bielefeld, Germany). UVB and UVA intensities were 0.49 mW/cm^2 and 6.32 mW/cm^2, respectively. The MED value defined by COLIPA is 5.6 J/cm^2 in total UV (22). The UV total (UVA+UVB) accounts for 14.8% of the energy delivered by the lamp (power 460 W/m^2). An irradiation dose equivalent to 1 MED corresponds to 37.83 J/cm^2 (in total spectrum) delivered by the lamp.
The Suntest test duration is calculated using the following formula: t=H/E with: • E=illumination energy in W/m^2 • H=irradiation dose in J/m^2 • t=duration of the test in s
The solutions of the compounds are prepared at a concentration of 500 μg/ml in methanol. 50 μl (25 μg) of each solution are deposited in a crystallizer, then irradiated in the Suntest at 5, 10 and/or 20 MED. A non-irradiated control is prepared (deposit of 50 μl of solution and addition of 2.450 ml of methanol). The solvent evaporates during irradiation and the products are taken up in 2.5 ml of methanol. After irradiation, the absorbance of each solution is measured with the UV-visible spectrophotometer (Varian CARY 50 Scan).

[3] = Solubility study in solvents or excipients used in cosmetics; format: physicochemical; conditions: for Solubilities: Soluble (solvent in which the compound is soluble): value = solvent; for Solubilities: Insoluble (solvent in which the compound is insoluble): value = solvent named in the Insoluble column
[4] = Spectral characteristics: molar extinction coefficient and specific absorbance (UV spectrophotometry in ethyl acetate); format: physicochemical; conditions: 10 μg/ml; for Maximum molar extinction coefficient UVA / Maximum specific absorbance UVA: UVA band; for Maximum molar extinction coefficient UVB / Maximum specific absorbance UVB: UVB band
Excerpt: The calculation of the molar extinction coefficient (ε) is made from the Beer-Lambert law:
[formula] Wherein: • A=absorbance • I0=intensity of the incident light • I=intensity of the transmitted light • ε=molar extinction (or molar absorbance) coefficient in M^−1 cm^−1 • l=path length in cm • c=concentration in mol/l
The molar extinction coefficient can be expressed with respect to a given mass of the product. It thus makes it possible to be able to compare the coefficients of extinction between products for the same given quantity. This quantity is 1% by weight. The molar extinction coefficient thus becomes the specific absorbance (A1cm^1%).
It is expressed as follows:
[formula] Wherein: • A1cm^1%=specific absorbance • ε=molar extinction coefficient • M=molar mass
The spectral characteristics of the compounds in comparison with commercial filters at a concentration of 10 μg/ml are summarized in tables 2-1 and 2-2.
Procedure: The products are dissolved in ethyl acetate to a concentration of 10 μg/ml. The spectra are measured using a dual-beam spectrophotometer (Varian CARY 50 Scan) between 290 nm and 400 nm.

[5] = Spectral distribution in UVA and UVB, 290 nm to 400 nm; format: physicochemical; conditions: for Absorption peaks: range from 290 nm to 400 nm; for Spectral distribution (UV bands absorbed): absorption spectra, FIGS. 1-3
Excerpt: The products tested are classified according to spectral distribution in UVA and UVB in a range from 290 nm to 400 nm. It is possible to differentiate them according to their spectral distribution: Products with a narrow spectrum: • Products absorbing in the range between 280 nm and 320 nm (UVB) • Products absorbing in the range between 320 nm and 400 nm (UVA) Products with a broad spectrum: • Products absorbing in UVB (280-320 nm) and UVA-II […] • Products covering UVB and UVA (280-400 nm).

[6] = excipient Finsol V NT ® (C12-C15 alkyl benzoate)
[7] = excipient PEG400 ® (polyethylene glycol)

Compound	SPF [1]	Photostability at 5 MED, mean [2]	Photostability at 10 MED, mean [2]	Solubility (%) [3, 6] [%]	Solubility (%) [3, 7] [%]	Solubilities: Soluble (solvent in which the compound is soluble) [3]	Solubilities: Insoluble (solvent in which the compound is insoluble) [3]	Maximum molar extinction coefficient UVA [4] [M⁻¹ cm⁻¹]	Maximum specific absorbance UVA ([4]; A1cm^1%)	Wavelength of maximum molar extinction coefficient UVA ([4]; the 'at ...' part of the cell)	Wavelength of maximum specific absorbance UVA ([4]; the 'at ...' part of the cell)	Absorption peaks [5] [nm]	Maximum molar extinction coefficient UVB [4] [M⁻¹ cm⁻¹]	Maximum specific absorbance UVB ([4]; A1cm^1%)	Wavelength of maximum molar extinction coefficient UVB ([4]; the 'at ...' part of the cell)	Wavelength of maximum specific absorbance UVB ([4]; the 'at ...' part of the cell)	Spectral distribution (UV bands absorbed) [5]	other results
1,4-bis[5,6-(4,4′-dihexyl)-diphenyl-1,2,4-triazin-3-yl]benzene [WP96]	68.02	83.30	74.35	1	2	DMC and CHCl3 and Et2O and Toluene and Octanol and Methanol	EtOH and Myritol and Acetic acid											Solubility (%) ([3]; excipient Myritol 318 ® (caprylic/capric triglycerides)): 0.1%; Solubilities: Soluble, Transcutol ([3]; solvent Transcutol): Transcutol 0.5%
COc1ccc(C(=O)CC(=O)c2ccc(C(C)(C)C)cc2)cc1 [Parsol 1789 ®, reference compound]	51.1							34100	1100	at 360 nm	at 360 nm	360						Maximum molar extinction coefficient UVC ([4]; UVC band): 8633 at M^−1 cm^−1; Maximum specific absorbance UVC ([4]; A1cm^1%, UVC band): 278 at; Wavelength of maximum molar extinction coefficient UVC ([4]; the 'at ...' part of the cell): 275 nm; Wavelength of maximum specific absorbance UVC ([4]; the 'at ...' part of the cell): 275 nm
CCCCC(CC)COC(=O)C=Cc1ccc(OC)cc1 (stereo not shown) [Parsol MCX ®, reference compound]	20.78											310	24600	848	at 310 nm	at 310 nm		
CC(C)(C)CC(C)(C)c1cc(Cc2cc(C(C)(C)CC(C)(C)C)cc(-n3nc4ccccc4n3)c2O)c(O)c(-n2nc3ccccc3n2)c1 [Tinosorb M ®, reference compound]	54.07							36400	552	at 345 nm	at 345 nm		36600	556	at 305 nm	at 305 nm		
CCCCC(CC)COc1ccc(-c2nc(-c3ccc(OC)cc3)nc(-c3ccc(OCC(CC)CCCC)cc3O)n2)c(O)c1 (stereo not shown) [Tinosorb S ®, reference compound]	76.19							49580	789	at 345 nm	at 345 nm		41750	751	at 310 nm	at 310 nm		
c1ccc(-c2nnc(-c3cccc(-c4nnc(-c5ccccc5)c(-c5ccccc5)n4)c3)nc2-c2ccccc2)cc1 [WP76, 1,3-bis(5,6-diphenyl-1,2,4-triazin-3-yl)benzene]		69.23	62.53			DMSO or hot DMF	Water and MeOH and CHCl3 and Acetone and Acetonitrile and Benzene					290	54000	998	at 290 nm	at 290 nm	absorbs in UVB	
CC(C)(C)c1ccc(-c2nnc(-c3ccc(-c4nnc(-c5ccc(C(C)(C)C)cc5)c(-c5ccc(C(C)(C)C)cc5)n4)cc3)nc2-c2ccc(C(C)(C)C)cc2)cc1 [WP104, 1,4-bis[5,6-(4,4′-4-di-tert-butyl)-diphenyl-1,2,4-triazin-3-yl]benzene]	79.35	93.70	88.55			DCM and CHCl3 and Toluene and DMSO and Ethyl acetate	EtOH and MeOH and 1-Octanol and Acetic acid and Myritol and Transcutol					300	90000	1176	at 300 nm	at 300 nm	absorb in UVB and UVA	
CCCCCCCCCCCCc1ccc(-c2nnc(-c3ccc(-c4nnc(-c5ccc(CCCCCCCCCCCC)cc5)c(-c5ccc(CCCCCCCCCCCC)cc5)n4)cc3)nc2-c2ccc(CCCCCCCCCCCC)cc2)cc1 [WP107, 1,4-bis[5,6-bis(4-dodecylphenyl)-1,2,4-triazine-3-yl]benzene]		89.27	84.75	1	1	DCM and CHCl3 and Toluene and Octanol and Ethyl acetate and DMSO	EtOH and Acetic acid and MeOH and Myritol and Transcutol	95000	783	at 335 nm	at 335 nm	300	92000	757	at 300 nm	at 300 nm	absorb in UVB and UVA	Solubility (%) ([3]; excipient Arlasolve DMI ® (dimethyl isosorbide)): 1%
CC(C)CCC(C)(C)c1ccc(-c2nnc(-c3ccc(-c4nnc(-c5ccc(C(C)(C)CCC(C)C)cc5)c(-c5ccc(C(C)(C)CCC(C)C)cc5)n4)cc3)nc2-c2ccc(C(C)(C)CCC(C)C)cc2)cc1 [WP151]	67.2	76.16	70.15	5	0.5			60500	611	at 340 nm	at 340 nm	340					absorb in UVB and UVA	Solubility (%) ([3]; excipient Isopropyl adipate): 1%; Solubility (%) ([3]; excipient Myritol 331 ® (cocoglycerides)): 2%

From US7816520B2, “5,6-diphenyl-1,2,4-triazinic dimeric derivatives and the use thereof in the form of sun-protective agents” (Pierre Fabre Dermo-Cosmetique, priority 2004, dated 2010)
